From US20240226125A1, “USE OF SOTAGLIFLOZIN FOR THE TREATMENT OF PATIENTS WITH TYPE 1 DIABETES MELLITUS” (priority 2019, published 2024)

System: adult patients with Type 1 Diabetes Mellitus who have inadequate glycemic control with insulin therapy
Assay: inTandem 1 and inTandem 2 pooled clinical studies, safety events / main risks
Format: in vivo, human
Conditions: Week 52
[1] = 200 mg (N = 219), Baseline BMI <27 kg/m^2
[2] = 200 mg (N = 305), Baseline BMI ≥27 kg/m^2
[3] = 200 mg, Baseline BMI <27 kg/m^2
[4] = 200 mg, Baseline BMI ≥27 kg/m^2
[5] = 400 mg (N = 212), Baseline BMI <27 kg/m^2
[6] = 400 mg (N = 313), Baseline BMI ≥27 kg/m^2

SMILES: CCOc1ccc(Cc2cc([C@@H]3O[C@H](SC)[C@@H](O)[C@H](O)[C@H]3O)ccc2Cl)cc1 [sotagliflozin, (2S,3R,4R,5S,6R)-2-(4-chloro-3-(4-ethoxybenzyl)phenyl)-6-(methylthio)tetrahydro-2H-pyran-3,4,5-triol]
- Genital Mycotic Infections (male), Events [n (%) n]: patients n (200 mg (N = 108), Baseline BMI <27 kg/m^2): 2
- Genital Mycotic Infections (female), Events [n (%) n]: patients n (200 mg (N = 111), Baseline BMI <27 kg/m^2): 8
- Genital Mycotic Infections (female), Events [n (%) n]: patients n (200 mg (N = 148), Baseline BMI ≥27 kg/m^2): 32
- Genital Mycotic Infections (male), Events [n (%) n]: patients n (200 mg (N = 157), Baseline BMI ≥27 kg/m^2): 6
- Positively Adjudicated Diabetic Ketoacidosis, Events [n (%) n]: patients n [1]: 7
- Positively Adjudicated Severe Hypoglycemia, Events [n (%) n]: patients n [1]: 17
- Positively Adjudicated Diabetic Ketoacidosis, Events [n (%) n]: patients n [2]: 8
- Positively Adjudicated Severe Hypoglycemia, Events [n (%) n]: patients n [2]: 13
- Diarrhea, EAIR per 1,000 Subject-years (95% CL) [3]: 89.76 (48.29, 131.23) per 1,000 Subject-years
- Diarrhea, Events [n (%) n]: events n [3]: 23
- Diarrhea, Events [n (%) n]: patients (%) [3]: 8.2%
- Diarrhea, Events [n (%) n]: patients n [3]: 18
- Diarrhea, Events per Subject per Year [3]: 0.115 Events per Subject per Year
- Diarrhea, Relative Risk of EAIR (95% CL) Versus Placebo [3]: 2.60 (1.11, 6.68)
- Documented hypoglycemia <55 mg/dL, Events per Subject per Year [3]: 16.86 Events per Subject per Year
- Genital Mycotic Infections (female), EAIR per 1,000 Subject-years (95% CL) [3]: 78.17 (24.00, 132.34) per 1,000 Subject-years
- Genital Mycotic Infections (female), Events [n (%) n]: events n [3]: 10
- Genital Mycotic Infections (female), Events [n (%) n]: patients (%) [3]: 7.2%
- Genital Mycotic Infections (female), Events per Subject per Year [3]: 0.098 Events per Subject per Year
- Genital Mycotic Infections (female), Relative Risk of EAIR (95% CL) Versus Placebo [3]: 2.57 (0.70, 11.96)
- Genital Mycotic Infections (male), EAIR per 1,000 Subject-years (95% CL) [3]: 20.37 (0.00, 48.60) per 1,000 Subject-years
- Genital Mycotic Infections (male), Events [n (%) n]: events n [3]: 2
- Genital Mycotic Infections (male), Events [n (%) n]: patients (%) [3]: 1.9%
- Genital Mycotic Infections (male), Events per Subject per Year [3]: 0.020 Events per Subject per Year
- Genital Mycotic Infections (male), Relative Risk of EAIR (95% CL) Versus Placebo [3]: 1.06 (0.11, 10.19)
- Positively Adjudicated Diabetic Ketoacidosis, EAIR per 1,000 Subject-years (95% CL) [3]: 34.91 (9.05, 60.77) per 1,000 Subject-years
- Positively Adjudicated Diabetic Ketoacidosis, Events [n (%) n]: events n [3]: 7
- Positively Adjudicated Diabetic Ketoacidosis, Events [n (%) n]: patients (%) [3]: 3.2%
- Positively Adjudicated Diabetic Ketoacidosis, Events per Subject per Year [3]: 0.035 Events per Subject per Year
- Positively Adjudicated Severe Hypoglycemia, EAIR per 1,000 Subject-years (95% CL) [3]: 84.77 (44.48, 125.07) per 1,000 Subject-years
- Positively Adjudicated Severe Hypoglycemia, Events [n (%) n]: events n [3]: 43
- Positively Adjudicated Severe Hypoglycemia, Events [n (%) n]: patients (%) [3]: 7.8%
- Positively Adjudicated Severe Hypoglycemia, Events per Subject per Year [3]: 0.214 Events per Subject per Year
- Positively Adjudicated Severe Hypoglycemia, Relative Risk of EAIR (95% CL) Versus Placebo [3]: 1.01 (0.51, 2.00)
- Diarrhea, EAIR per 1,000 Subject-years (95% CL) [4]: 57.25 (29.20, 85.30) per 1,000 Subject-years
- Diarrhea, Events [n (%) n]: events n [4]: 22
- Diarrhea, Events [n (%) n]: patients (%) [4]: 5.2%
- Diarrhea, Events [n (%) n]: patients n [4]: 16
- Diarrhea, Events per Subject per Year [4]: 0.079 Events per Subject per Year
- Diarrhea, Relative Risk of EAIR (95% CL) Versus Placebo [4]: 0.78 (0.40, 1.51)
- Documented hypoglycemia <55 mg/dL, Events per Subject per Year [4]: 13.41 Events per Subject per Year
- Genital Mycotic Infections (female), EAIR per 1,000 Subject-years (95% CL) [4]: 240.02 (156.86, 323.19) per 1,000 Subject-years
- Genital Mycotic Infections (female), Events [n (%) n]: events n [4]: 41
- Genital Mycotic Infections (female), Events [n (%) n]: patients (%) [4]: 21.6%
- Genital Mycotic Infections (female), Events per Subject per Year [4]: 0.308 Events per Subject per Year
- Genital Mycotic Infections (female), Relative Risk of EAIR (95% CL) Versus Placebo [4]: 3.37 (1.65, 7.46)
- Genital Mycotic Infections (male), EAIR per 1,000 Subject-years (95% CL) [4]: 41.05 (8.20, 73.89) per 1,000 Subject-years
- Genital Mycotic Infections (male), Events [n (%) n]: events n [4]: 7
- Genital Mycotic Infections (male), Events [n (%) n]: patients (%) [4]: 3.8%
- Genital Mycotic Infections (male), Events per Subject per Year [4]: 0.048 Events per Subject per Year
- Genital Mycotic Infections (male), Relative Risk of EAIR (95% CL) Versus Placebo [4]: 5.96 (0.88, 138.01)
- Positively Adjudicated Diabetic Ketoacidosis, EAIR per 1,000 Subject-years (95% CL) [4]: 28.62 (8.79, 48.46) per 1,000 Subject-years
- Positively Adjudicated Diabetic Ketoacidosis, Events [n (%) n]: events n [4]: 9
- Positively Adjudicated Diabetic Ketoacidosis, Events [n (%) n]: patients (%) [4]: 2.6%
- Positively Adjudicated Diabetic Ketoacidosis, Events per Subject per Year [4]: 0.032 Events per Subject per Year
- Positively Adjudicated Diabetic Ketoacidosis, Relative Risk of EAIR (95% CL) Versus Placebo [4]: 7.77 (1.24, 173.82)
- Positively Adjudicated Severe Hypoglycemia, EAIR per 1,000 Subject-years (95% CL) [4]: 46.51 (21.23, 71.80) per 1,000 Subject-years
- Positively Adjudicated Severe Hypoglycemia, Events [n (%) n]: events n [4]: 25
- Positively Adjudicated Severe Hypoglycemia, Events [n (%) n]: patients (%) [4]: 4.3%
- Positively Adjudicated Severe Hypoglycemia, Events per Subject per Year [4]: 0.089 Events per Subject per Year
- Positively Adjudicated Severe Hypoglycemia, Relative Risk of EAIR (95% CL) Versus Placebo [4]: 0.57 (0.28, 1.14)
- Genital Mycotic Infections (male), Events [n (%) n]: patients n (400 mg (N = 99), Baseline BMI <27 kg/m^2): 9
- Genital Mycotic Infections (female), Events [n (%) n]: patients n (400 mg (N = 113), Baseline BMI <27 kg/m^2): 19
- Genital Mycotic Infections (male), Events [n (%) n]: patients n (400 mg (N = 154), Baseline BMI ≥27 kg/m^2): 7
- Genital Mycotic Infections (female), Events [n (%) n]: patients n (400 mg (N = 159), Baseline BMI ≥27 kg/m^2): 28
- Positively Adjudicated Diabetic Ketoacidosis, Events [n (%) n]: patients n [5]: 9
- Positively Adjudicated Severe Hypoglycemia, Events [n (%) n]: patients n [5]: 11
- Positively Adjudicated Diabetic Ketoacidosis, Events [n (%) n]: patients n [6]: 11
- Positively Adjudicated Severe Hypoglycemia, Events [n (%) n]: patients n [6]: 12
